Format in all cases: functional, Homo sapiens
Common to all, as to settings: Homo sapiens, read-out: Cell Viability; for viability at 10 µM: Concentration 10 uM

The test system of assay [1] is Colon cancer organoid. In words: Targeting of F14 CAF-induced therapy resistance in O14 CRC organoid-stroma co-culture. Cell viability is reported without Gefitinib.
Assay [2] concerns Colon cancer organoid. Description: Targeting of F14 CAF-induced therapy resistance in O14 CRC organoid-stroma co-culture. Cell viability is reported with Gefitinib.
In assay [3] the test system is Colon cancer organoid. Description: Targeting of F14 CAF-induced therapy resistance in O23 CRC organoid-stroma co-culture. Cell viability is reported without Gefitinib.
In assay [4] the test system is Colon cancer organoid. Description: Targeting of F14 CAF-induced therapy resistance in O23 CRC organoid-stroma co-culture. Cell viability is reported with Gefitinib.
The subject of assay [5] is Colon cancer organoid. In words: Targeting of F14 CAF-induced therapy resistance in O23 CRC organoid-stroma co-culture. Cell viability is reported with SN-38.

`CN1C(=O)[C@@H](N2CCc3c(nn(Cc4ccccc4)c3Br)C2=O)COc2ccccc21` [TP-030-2]: the viability – broadly, a read-out of living cells in per cent, often relative to untreated cells – at 1 µM in assay [1] (Concentration 1 uM) is 113%; in assay [2] (Concentration 1 uM), 31.6%; in assay [3] (Concentration 1 uM), 165%; in assay [4] (Concentration 1 uM), 83.4%; in assay [5] (Concentration 1 uM), 63.7%.
`CC1CCN(c2ccnc(NCc3cn(C)cn3)n2)CC1` [TP-040]: the viability at 10 µM in assay [1] came out at 128%; in assay [2], 55%; in assay [3], 107%; in assay [4], 81.4%; in assay [5], 62.9%.
The corresponding values for `CN1CCN(c2ccnc(NCCc3ccccc3)n2)CC1` [TP-040n] are 192%, 66.3%, 177%, 100% and 89.4%.
The corresponding values for `CC(=O)Nc1cccc(-n2c(=O)n(C3CC3)c(=O)c3c(Nc4ccc(I)cc4F)n(C)c(=O)c(C)c32)c1` [TRAMETINIB] are 1.6%, 0.402%, 1.69%, 1.61% and 1.6%.
For `Cc1ccc2[nH]c(CNCCCc3ccncc3)cc(=O)c2c1` [UCSF924NC] the same measures were 127%, 33.3%, 95.8%, 37.3% and 52.3%.
For the compound `Cc1ccc2nc(CNCCCOc3ccccc3)cc(O)c2c1` [UCSF924], the viability at 10 µM in assay [1] was 105%; in assay [2], 36.6%; in assay [3], 119%; in assay [4], 48.9%; in assay [5], 63.9%.
For `CNC(=O)c1ccccc1Nc1cc(Nc2ccc(N3CCOCC3)cc2OC)ncc1C(F)(F)F` [VS-4718] the same measures were 25.2%, 5.44%, 22.4%, 4.5% and 19.3%.
`O=C(NNS(=O)(=O)c1ccccc1F)c1cc(F)cc(-c2ccccn2)c1` [WM-1119]: the viability at 10 µM in assay [1] turned out to be 41%; in assay [2] it was 19.4%; in assay [3] it was 121%; in assay [4], 40.5%; in assay [5] it was 57.2%.
The corresponding values for `O=C(NNS(=O)(=O)c1ccccc1)c1cc(-c2ccnnc2)ccc1F` [WM-2474] are 77.4%, 30.5%, 75.6%, 61.3% and 54.2%.
For `Nc1nc(NCc2ccccc2)nc(-c2cccc(CO)c2)n1` [ZINC32547799] the same measures were 76%, 31.3%, 139%, 75.9% and 119%.

The values above are taken from ChEMBL document CHEMBL5608113, “Targeting of CAF-induced therapy resistance in CRC organoid-stroma co-cultures” (2024).
